One assay has as its system MV4-11. Put plainly: Cytotoxicity towards MV4-11 cell line. It counts as cell-based. As to conditions: Homo sapiens. The method, then:
(§1) In various embodiments, the compounds of the disclosure are those in which show IC50 values in cytotoxicity experiments towards cells lines MV4-11 and U937 of >20 μM, 10-20 μM, 5-10 μM, 1-5 μM, or <1 μM.
(§2) The IC50 is divided into 5 categories: A<1 μM, B 1-5 μM, C 5-10 μM, D 10-20 μM, and E>20 μM.

The test system of another assay is U-937. Put plainly: Cytotoxicity towards U-937 cell line. It counts as cell-based. The settings on record: Homo sapiens. Here is the method: as §1, §2

The results in this text go back to patent publication US10538520B2, “Benzamide and nicotinamide compounds and methods of using same” (OncoTartis Inc., priority 2013, dated 2020).

Structures are written as SMILES.

Usually IC50 stands for the concentration that inhibits the measured activity by half.

As to `O=C(NCCCc1cn[nH]c1)c1ccc(-n2cccn2)c(C#Cc2ccc(C(F)(F)F)cc2)c1` [TT-03324], the IC50 in the assay with MV4-11 and with U-937 was 1000 to 5000 nM throughout.

`O=C(NCCCc1ccccn1)c1ccc(-n2cccn2)c(C#Cc2ccccc2)c1` [TT-02935]: the 50% inhibitory concentration (IC50) in the assay with MV4-11 lay within 10000 to 20000 nM; in the assay with U-937, 5000 to 10000 nM.

On to `O=C(NCCn1ccnc1)c1ccc(-n2cccn2)c(C#Cc2ccccc2)c1` [TT-02694], for which the figures for the IC50 in the assay with MV4-11 and in the assay on U-937 were greater than 20000 nM and less than 1000 nM, respectively.

As for `O=C(NCCN1C(=O)CSC1=O)c1ccc(-n2cccn2)c(C#Cc2cccnc2)c1` [TT-02938], the IC50 in the assay with MV4-11 and in the assay with U-937 was greater than 20000 nM in each case.

Consider `O=C(NCCCn1ccnc1)c1ccc(-n2cccn2)c(C#Cc2ccccc2Cl)c1` [TT-02750], for which the IC50 in the assay with MV4-11 and in the assay with U-937 was less than 1000 nM in each case.

With `C[C@@H]1CN(c2ncc(C(=O)NC/C=C/c3cn[nH]c3)cc2C#Cc2ccc(Cl)cc2)C[C@H](C)O1` [TT-03752], the IC50 in the assay with MV4-11 and with U-937 was less than 1000 nM throughout.

For `COc1cccc(C#Cc2cc(C(=O)NCCCc3cn[nH]c3)ccc2-n2cccn2)c1` [TT-03308], the IC50 with MV4-11 and in the assay with U-937 was less than 1000 nM in each case.

For `CC(C)(C)OC(=O)N1CCN(c2ccc(C(=O)NCCCc3cn[nH]c3)cc2C#Cc2ccc(F)cc2)CC1` [TT-03596], the IC50 in the assay on MV4-11 and with U-937 was less than 1000 nM in each case.

Take `NCCOCCOCCOCCN1CCN(c2ccc(C(=O)NCCCn3ccnc3)cc2C#Cc2ccc(F)cc2)CC1` [TT-03725]: the half-inhibitory concentration (IC50) with MV4-11 and in the assay with U-937 was less than 1000 nM in each case.

On to `C[C@@H]1CN(c2ncc(C(=O)NC/C=C/c3cn[nH]c3)cc2C#Cc2ccc(F)cc2)C[C@H](C)O1` [TT-03751], for which the IC50 with MV4-11 and in the assay with U-937 was less than 1000 nM in each case.

On to `O=C(NCCCc1cn[nH]c1)c1ccc(N2CCC(C(F)(F)F)CC2)c(C#Cc2ccc(F)cc2)c1` [TT-03591], for which the 50% inhibitory concentration (IC50) in the assay on MV4-11 and in the assay on U-937 was less than 1000 nM in each case.

For `O=C(NCCCn1ccnc1)c1ccc(-n2cccn2)c(C#Cc2ccccc2C(F)(F)F)c1` [TT-02751], the IC50 in the assay on MV4-11 and in the assay on U-937 was less than 1000 nM throughout.

Consider `Cc1nn(-c2ccc(C(=O)NCCCc3cn[nH]c3)cc2C#Cc2ccccc2)c(C)c1C` [TT-03626], for which the IC50 in the assay on MV4-11 and in the assay with U-937 was less than 1000 nM in each case.

In the case of `O=C(NCCCc1cn[nH]c1)c1ccc(N2CCCCC2CCO)c(C#Cc2ccc(F)cc2)c1` (centres unmarked) [TT-03592], the IC50 in the assay on MV4-11 and with U-937 was less than 1000 nM throughout.

Turning to `O=C(NCCCn1ccnc1)c1ccc(-n2cccn2)c(C#Cc2cccc(C(F)(F)F)c2)c1` [TT-03331], the IC50 in the assay on MV4-11 and in the assay with U-937 was less than 1000 nM each time.

As for `O=C(NCCCc1cn[nH]c1)c1ccc(-n2cccn2)c(C#Cc2cccc(N3CCCC3)n2)c1` [TT-03611], the IC50 with MV4-11 and with U-937 was less than 1000 nM throughout.

Take `CC(C)(O)C#Cc1cc(C(=O)NCCCc2cn[nH]c2)ccc1-n1cccn1` [TT-03346]: the IC50 is 5000 to 10000 nM with MV4-11 and greater than 20000 nM in the assay with U-937.

Consider `O=C(NCCCN1CCCC1=O)c1ccc(-n2cccn2)c(C#Cc2cccnc2)c1` [TT-02937], for which the IC50 with MV4-11 and in the assay on U-937 was greater than 20000 nM throughout.

On to `Cc1ccnn1CCNC(=O)c1ccc(-n2cccn2)c(C#Cc2cccnc2)c1` [TT-02945], for which the IC50 in the assay on MV4-11 and in the assay on U-937 was greater than 20000 nM each time.

As for `COc1ccc(C#Cc2cc(C(=O)NCCCc3cn[nH]c3)ccc2-n2cccn2)cc1` [TT-03306], the IC50 in the assay with MV4-11 and in the assay on U-937 was less than 1000 nM throughout.

On to `CN(C)c1ccc(C(=O)NCCCc2cn[nH]c2)cc1C#Cc1ccccc1` [TT-03242], for which the IC50 in the assay with MV4-11 and in the assay on U-937 was less than 1000 nM in each case.

Regarding `O=C(NCCCc1cn[nH]c1)c1cnc(N2CCS(=O)(=O)CC2)c(C#Cc2ccc(F)cc2)c1` [TT-03783], the IC50 in the assay with MV4-11 and with U-937 was less than 1000 nM each time.

For `O=C(NCCCn1ccnc1)c1cccc(Br)c1` [TT-03073], the IC50 in the assay with MV4-11 and with U-937 was greater than 20000 nM in each case.

Take `O=C(NCCCCn1ccnc1)c1ccc(-n2cccn2)c(C#Cc2ccccc2)c1` [TT-02717]: the IC50 in the assay on MV4-11 and in the assay on U-937 was less than 1000 nM each time.

With `O=C(NCCc1c[nH]cn1)c1ccc(-n2cccn2)c(C#Cc2ccccc2)c1` [TT-02686], the IC50 in the assay with MV4-11 lay in the range of 5000 to 10000 nM; in the assay with U-937 it was 10000 to 20000 nM.

As for `O=C(NCCCc1cn[nH]c1)c1ccc(-c2cc[n+]([O-])cc2)c(C#Cc2ccc(F)cc2)c1` [TT-03773], the IC50 in the assay with MV4-11 and in the assay on U-937 was less than 1000 nM throughout.

With `O=C(NCCCn1ccnc1)c1ccc(-n2cccn2)c(C#Cc2ccc(C(F)(F)F)cc2)c1` [TT-02747], the IC50 in the assay on MV4-11 was 10000 to 20000 nM; in the assay on U-937 it was 5000 to 10000 nM.

`Cn1cc(-c2ccc(C(=O)NCCCc3cn[nH]c3)cc2C#Cc2ccc(F)cc2)cn1` [TT-03585]: the IC50 with MV4-11 and with U-937 was less than 1000 nM each time.

Regarding `O=C(NCCCn1ccnc1)c1ccc(-c2ccncc2)c(C#Cc2ccccc2)c1` [TT-03256], the IC50 with MV4-11 and in the assay on U-937 was less than 1000 nM in each case.

On to `O=C(NCCCn1ccnc1)c1ccc(-n2cccn2)c(CCc2ccccc2)c1` [TT-03574], for which the IC50 in the assay with MV4-11 and with U-937 was 5000 to 10000 nM throughout.

Take `O=C(NCC(O)Cc1cn[nH]c1)c1cnc(N2CCOCC2)c(C#Cc2ccc(F)cc2)c1` (centres unmarked) [TT-03774]: the IC50 with MV4-11 is less than 1000 nM; with U-937, 1000 to 5000 nM.

Regarding `CNC(=O)c1cccc(C#Cc2cc(C(=O)NCCCc3cn[nH]c3)ccc2-n2cccn2)c1` [TT-03359], the IC50 in the assay with MV4-11 and in the assay with U-937 was less than 1000 nM each time.

As for `C[C@@H]1CN(c2ncc(C(=O)NCCCc3cn[nH]c3)cc2C#Cc2ccc(Cl)cc2)C[C@H](C)O1` [TT-03753], the half-inhibitory concentration (IC50) in the assay on MV4-11 and with U-937 was less than 1000 nM throughout.

For `CC(=O)N1CCN(c2ccc(C(=O)NCCCc3cn[nH]c3)cc2C#Cc2ccc(F)cc2)CC1` [TT-03599], the IC50 with MV4-11 and with U-937 was less than 1000 nM each time.

Turning to `Cc1cc(CN(C)C(=O)c2ccc(-n3cccn3)c(C#Cc3ccccc3)c2)no1` [TT-02801], the IC50 in the assay with MV4-11 lay within 10000 to 20000 nM; with U-937, 1000 to 5000 nM.

Regarding `O=C(NCCCn1ccnc1)c1ccc(-n2cccn2)c(C#Cc2ccc(Cl)cc2)c1` [TT-03221], the IC50 in the assay with MV4-11 and with U-937 was less than 1000 nM in each case.

On to `NCc1ccc(C#Cc2cc(C(=O)NCCCc3cn[nH]c3)ccc2-n2cccn2)cc1` [TT-03334], for which the IC50 in the assay with MV4-11 and with U-937 was less than 1000 nM throughout.

As to `C[C@@H]1CN(c2ccc(C(=O)NCCCc3cn[nH]c3)cc2C#Cc2ccc(F)cc2)C[C@H](C)O1` [TT-03670], the IC50 with MV4-11 and in the assay with U-937 was less than 1000 nM each time.

With `COc1ccc(C#Cc2cc(C(=O)NCCCc3cn[nH]c3)ccc2N2CCOCC2)cn1` [TT-03720], the IC50 in the assay on MV4-11 and in the assay on U-937 was less than 1000 nM in each case.

Regarding `O=C(NCCCc1cn[nH]c1)c1ccc(-n2cnnc2)c(C#Cc2ccccc2)c1` [TT-03237], the IC50 with MV4-11 and in the assay on U-937 was greater than 20000 nM throughout.

Consider `Cc1ccc(C(=O)NCCCc2cn[nH]c2)cc1C#Cc1ccccc1` [TT-03248], for which the IC50 with MV4-11 and in the assay on U-937 was less than 1000 nM throughout.

Take `Cc1nccn1-c1ccc(C(=O)NCCCc2cn[nH]c2)cc1C#Cc1ccc(F)cc1` [TT-03602]: the IC50 in the assay on MV4-11 and in the assay on U-937 was less than 1000 nM in each case.

With `O=C(NCCCc1cn[nH]c1)c1ccc(-n2ccnc2)c(C#Cc2ccc(F)cc2)c1` [TT-03627], the IC50 in the assay on MV4-11 and with U-937 was less than 1000 nM each time.

As for `N#Cc1cccc(C#Cc2cc(C(=O)NCCCc3cn[nH]c3)ccc2-n2cccn2)c1` [TT-03357], the IC50 in the assay on MV4-11 and in the assay with U-937 was less than 1000 nM in each case.

Consider `O=C(NC/C=C/c1cn[nH]c1)c1ccc(N2CCCC2)c(C#Cc2ccc(F)cc2)c1` [TT-03717], for which the IC50 in the assay with MV4-11 and in the assay with U-937 was less than 1000 nM in each case.

As to `O=C(NCCCc1cn[nH]c1)c1cnc(N2CC[S+]([O-])CC2)c(C#Cc2ccc(F)cc2)c1` [TT-03782], the IC50 with MV4-11 and with U-937 was less than 1000 nM throughout.

With `Cc1ccccc1C#Cc1cc(C(=O)NCCCc2cn[nH]c2)ccc1-n1cccn1` [TT-03326], the IC50 with MV4-11 and in the assay on U-937 was less than 1000 nM in each case.

Turning to `O=C(NCCCc1cn[nH]c1)c1ccc(-n2cccn2)c(C#Cc2cccc(O)c2)c1` [TT-03311], the IC50 in the assay with MV4-11 and in the assay on U-937 was less than 1000 nM in each case.

On to `Cc1ccc(C(=O)NCCCn2ccnc2)cc1C#Cc1ccccc1` [TT-03196], for which the IC50 in the assay on MV4-11 and in the assay on U-937 was less than 1000 nM each time.

As for `O=C(NCCCc1cn[nH]c1)c1ccc(-n2cccn2)c(C#Cc2ccccc2F)c1` [TT-03211], the IC50 in the assay with MV4-11 and in the assay with U-937 was less than 1000 nM in each case.

As to `O=C(NCCCc1cn[nH]c1)c1ccc(N2CCOCC2)c(C#Cc2ccc(F)cn2)c1` [TT-03633], the IC50 in the assay with MV4-11 and in the assay on U-937 was less than 1000 nM in each case.

For `CC1(C)CCCN(c2ccc(C(=O)NCCCc3cn[nH]c3)cc2C#Cc2ccc(F)cc2)C1` [TT-03676], the IC50 with MV4-11 and with U-937 was less than 1000 nM each time.

In the case of `Cc1noc(CNC(=O)c2ccc(-n3cccn3)c(C#Cc3ccccc3)c2)n1` [TT-02802], the IC50 in the assay with MV4-11 is greater than 20000 nM; in the assay on U-937, 1000 to 5000 nM.

As for `Cc1cccc(C#Cc2cc(C(=O)NCCCc3cn[nH]c3)ccc2-n2cccn2)c1` [TT-03328], the IC50 with MV4-11 and in the assay with U-937 was less than 1000 nM in each case.

For the compound `C#Cc1cc(C(=O)NCCCc2cn[nH]c2)ccc1-n1cccn1` [TT-03337], the IC50 in the assay with MV4-11 was 10000 to 20000 nM; in the assay on U-937, greater than 20000 nM.

As to `Nc1cccc(C#Cc2cc(C(=O)NCCCc3cn[nH]c3)ccc2-n2cccn2)n1` [TT-03354], the IC50 in the assay on MV4-11 and with U-937 was less than 1000 nM in each case.

`O=C(NCCCn1ccnc1)c1ccc(Oc2ccccc2)c(C#Cc2ccccc2)c1` [TT-02741]: the IC50 in the assay with MV4-11 and in the assay with U-937 was less than 1000 nM each time.

On to `Cc1nncn1-c1ccc(C(=O)NCCCn2ccnc2)cc1C#Cc1ccccc1` [TT-02732], for which the IC50 with MV4-11 and in the assay with U-937 was less than 1000 nM throughout.
